Measurements from patent US9738932B2, “Biomarkers for cardiovascular side-effects induced by cox-2 inhibitory compounds” (FIRALIS SAS, priority 2005, dated 2017).

Tested on: mRNA expression in cardiovascular tissues
Conditions: cynomolgus monkey, in vivo

## Cc1ccc(-c2cc(C(F)(F)F)nn2-c2ccc(S(N)(=O)=O)cc2)cc1 [Celebrex]
  AIF1 (209901_x_at) avg fold change vs control: 1.5 fold
  AIF1 (213095_x_at) avg fold change vs control: 2.0 fold
  B2M (201891_s_at) avg fold change vs control: 1.3 fold
  BTN3A1 (207485_x_at) avg fold change vs control: 1.7 fold
  BTN3A3 (204821_at) avg fold change vs control: 1.6 fold
  C1S (208747_s_at) avg fold change vs control: 1.0 fold
  C2 (203052_at) avg fold change vs control: 1.1 fold
  C4A (208451_s_at) avg fold change vs control: 1.6 fold
  CASP1 (211367_s_at) avg fold change vs control: 1.2 fold
  CCL3 (205114_s_at) avg fold change vs control: 1.3 fold
  CCL5 (1405_i_at) avg fold change vs control: 0.9 fold
  CCL19 (210072_at) avg fold change vs control: 2.0 fold
  CCNB2 (202705_at) avg fold change vs control: 1.2 fold
  CD74 (209619_at) avg fold change vs control: 1.3 fold
  CX3CR1 (205898_at) avg fold change vs control: 1.1 fold
  DUSP6 (208893_s_at) avg fold change vs control: 1.2 fold
  ECGF1 (204858_s_at) avg fold change vs control: 1.1 fold
  FCGR3A (204006_s_at) avg fold change vs control: 1.3 fold
  GZMB (210164_at) avg fold change vs control: 0.9 fold
  HLA-DMA (217478_s_at) avg fold change vs control: 1.4 fold
  HLA-DQB1 (211656_x_at) avg fold change vs control: 1.6 fold
  HLA-DRB1 (215193_x_at) avg fold change vs control: 1.7 fold
  IRF1 (202531_at) avg fold change vs control: 1.1 fold
  IRF7 (208436_s_at) avg fold change vs control: 2.1 fold
  ISGF3G (203882_at) avg fold change vs control: 1.0 fold
  LAIR1 (208071_s_at) avg fold change vs control: 3.6 fold
  LRMP (204674_at) avg fold change vs control: 3.8 fold
  PLA2G4C (209785_s_at) avg fold change vs control: 1.4 fold
  TNFSF10 (202687_s_at) avg fold change vs control: 1.3 fold
  TNFSF10 (202688_at) avg fold change vs control: 1.3 fold
2 weeks
  209813_x_at avg fold change vs control: 1.2 fold
  BCL3 (204908_s_at) avg fold change vs control: 1.0 fold
  BTN3A3 (38241_at) avg fold change vs control: 1.1 fold
  BTN3A3 (204820_s_at) avg fold change vs control: 1.3 fold
  C1QA (218232_at) avg fold change vs control: 1.5 fold
  C1QB (202953_at) avg fold change vs control: 1.1 fold
  C1R (212067_s_at) avg fold change vs control: 0.9 fold
  CASP1 (209970_x_at) avg fold change vs control: 1.2 fold
  CCL2 (216598_s_at) avg fold change vs control: 2.3 fold
  CCL8 (214038_at) avg fold change vs control: 1.3 fold
  CCL18 (209924_at) avg fold change vs control: 1.5 fold
  CD3D (213539_at) avg fold change vs control: 3.2 fold
  CD8A (205758_at) avg fold change vs control: 1.0 fold
  CD14 (201743_at) avg fold change vs control: 1.1 fold
  CLU (208791_at) avg fold change vs control: 0.8 fold
  CMAH (210571_s_at) avg fold change vs control: 1.0 fold
  CTSC (201487_at) avg fold change vs control: 1.3 fold
  CTSK (202450_s_at) avg fold change vs control: 1.0 fold
  CTSS (202902_s_at) avg fold change vs control: 1.2 fold
  CXCL9 (203915_at) avg fold change vs control: 1.4 fold
  CXCL10 (204533_at) avg fold change vs control: 1.1 fold
  CXCL11 (210163_at) avg fold change vs control: 3.7 fold
  CXCL11 (211122_s_at) avg fold change vs control: 1.6 fold
  CXCL12 (209687_at) avg fold change vs control: 1.1 fold
  CYBA (203028_s_at) avg fold change vs control: 1.2 fold
  CYBB (203923_s_at) avg fold change vs control: 1.2 fold
  CYP1B1 (202436_s_at) avg fold change vs control: 1.0 fold
  CYP3A5 (214234_s_at) avg fold change vs control: 1.3 fold
  CYP11B1 (214630_at) avg fold change vs control: 1.1 fold
  ECM1 (209365_s_at) avg fold change vs control: 0.9 fold
  F2RL1 (206429_at) avg fold change vs control: 1.1 fold
  F13A1 (203305_at) avg fold change vs control: 0.9 fold
  FCGR1A (214511_x_at) avg fold change vs control: 1.1 fold
  G1P2 (205483_s_at) avg fold change vs control: 1.4 fold
  HCA127 (220040_x_at) avg fold change vs control: 1.0 fold
  HCK (208018_s_at) avg fold change vs control: 1.4 fold
  HFE (210864_x_at) avg fold change vs control: 1.1 fold
  HFE (211329_x_at) avg fold change vs control: 0.7 fold
  HFE (211332_x_at) avg fold change vs control: 0.8 fold
  HFE (211863_x_at) avg fold change vs control: 0.9 fold
  HFE (211866_x_at) avg fold change vs control: 0.9 fold
  HHL (203020_at) avg fold change vs control: 1.4 fold
  HLA-A (211528_x_at) avg fold change vs control: 1.1 fold
  HLA-A (211529_x_at) avg fold change vs control: 1.2 fold
  HLA-A (211530_x_at) avg fold change vs control: 1.5 fold
  HLA-A (215313_x_at) avg fold change vs control: 1.2 fold
  HLA-B (208729_x_at) avg fold change vs control: 1.1 fold
  HLA-B (209140_x_at) avg fold change vs control: 1.1 fold
  HLA-B (211911_x_at) avg fold change vs control: 1.2 fold
  HLA-C (208812_x_at) avg fold change vs control: 1.2 fold
  HLA-C (214459_x_at) avg fold change vs control: 1.3 fold
  HLA-C (216526_x_at) avg fold change vs control: 1.2 fold
  HLA-DMB (203932_at) avg fold change vs control: 1.4 fold
  HLA-DQA1 (212671_s_at) avg fold change vs control: 2.1 fold
  HLA-DQB1 (209823_x_at) avg fold change vs control: 2.0 fold
  HLA-DQB1 (211654_x_at) avg fold change vs control: 2.0 fold
  HLA-DQB2 (212998_x_at) avg fold change vs control: 1.9 fold
  HLA-DRA (208894_at) avg fold change vs control: 1.3 fold
  HLA-DRA (210982_s_at) avg fold change vs control: 1.5 fold
  HLA-DRB3 (209312_x_at) avg fold change vs control: 1.5 fold
  HLA-DRB6 (217362_x_at) avg fold change vs control: 1.4 fold
  HLA-E (200905_x_at) avg fold change vs control: 1.1 fold
  HLA-E (217456_x_at) avg fold change vs control: 1.2 fold
  HLA-F (204806_x_at) avg fold change vs control: 1.2 fold
  HLA-F (221875_x_at) avg fold change vs control: 1.0 fold
  ICAM1 (202638_s_at) avg fold change vs control: 0.8 fold
  ICAM1 (215485_s_at) avg fold change vs control: 1.1 fold
